Tests used:
[1] = Molar enthalpy of transition or fusion; conditions: Crystal
[2] = molar heat capacity at constant pressure; conditions: 101.33 kPa
[3] = Solid-liquid equilibrium temperature; conditions: 101 kPa; Crystal; DTA

CNC[C@H](O)[C@@H](O)[C@H](O)[C@H](O)CO [(2R,3R,4R,5S)-6-(methylamino)hexane-1,2,3,4,5-pentaol]
Conditions | Molar enthalpy of transition or fusion [kcal/mol] | Solid-liquid equilibrium temperature [K]
[1] | 12.3 | –
[3] | – | 400.9

molar heat capacity at constant pressure [J/K/mol], [2]
Conditions | Crystal | Metastable liquid
290 K | 322 | –
295 K | 327 | –
300 K | 333 | –
305 K | 338 | –
310 K | 343 | –
315 K | 348 | –
320 K | 353 | –
325 K | 358 | –
330 K | 362 | –
335 K | 367 | –
340 K | 372 | –
345 K | 377 | –
350 K | 382 | –
355 K | 387 | –
360 K | 392 | –
365 K | 396 | –
370 K | 401 | –
375 K | 406 | –
380 K | 411 | 662
385 K | – | 664
390 K | – | 666
395 K | – | 668
400 K | – | 670
405 K | – | 671
410 K | – | 672
415 K | – | 673
420 K | – | 673
425 K | – | 674
430 K | – | 676
435 K | – | 678
440 K | – | 678
